≈ marks a conversion by molar mass, not a printed value.
System: not listed separately
Assay: Selectivity index, ratio of CC50 for african green monkey Vero cells to MIC for multidrug-resistant Mycobacterium tuberculosis
Type: toxicity, cell-based
Details: read-out: Selectivity Index

Compound	selectivity ratio
O=[N+]([O-])c1ccc(/C=N\NC(=S)N(Cc2ccccc2)Cc2ccccc2)o1	1320

System: Mycobacterium tuberculosis
Assay: Ratio of ethambutol MIC to compound MIC for multidrug-resistant Mycobacterium tuberculosis
Type: functional
Details: not given

Compound	Ratio
O=[N+]([O-])c1ccc(/C=N\NC(=S)N(Cc2ccccc2)Cc2ccccc2)o1	314

System: Mycobacterium tuberculosis
Assay: Ratio of ofloxacin MIC to compound MIC for multidrug-resistant Mycobacterium tuberculosis
Type: functional
Details: not given

Compound	Ratio
O=[N+]([O-])c1ccc(/C=N\NC(=S)N(Cc2ccccc2)Cc2ccccc2)o1	288

System: Mycobacterium tuberculosis
Assay: Ratio of rifampicin MIC to compound MIC for multidrug-resistant Mycobacterium tuberculosis
Type: functional
Details: not given

Compound	Ratio
O=[N+]([O-])c1ccc(/C=N\NC(=S)N(Cc2ccccc2)Cc2ccccc2)o1	31

System: Mycobacterium tuberculosis
Assay: Ratio of isoniazid MIC to compound MIC for multidrug-resistant Mycobacterium tuberculosis
Type: functional
Details: not given

Compound	Ratio
O=[N+]([O-])c1ccc(/C=N\NC(=S)N(Cc2ccccc2)Cc2ccccc2)o1	379

System: Mycobacterium tuberculosis
Assay: Antitubercular activity against multidrug-resistant Mycobacterium tuberculosis by NCCLS agar dilution method
Type: functional
Details: not given

Compound	MIC [µM]
S=C(NN=C(c1ccccc1)c1ccccc1)N(Cc1ccccc1)Cc1ccccc1	1.79 (≈ 0.78 µg/mL)
O=[N+]([O-])c1ccc(/C=N\NC(=S)N(Cc2ccccc2)Cc2ccccc2)cc1	0.98 (≈ 0.396 µg/mL)
C=CCN(CC=C)C(=S)N/N=C\c1ccc(Cl)cc1	2.65 (≈ 0.779 µg/mL)
S=C(N/N=C\c1ccc(Cl)cc1)N(Cc1ccccc1)Cc1ccccc1	1.98 (≈ 0.78 µg/mL)
C=CCN(CC=C)C(=S)N/N=C\c1ccccc1C	5.7 (≈ 1.56 µg/mL)
Cc1ccccc1/C=N\NC(=S)N(Cc1ccccc1)Cc1ccccc1	4.71 (≈ 1.76 µg/mL)
Oc1ccccc1/C=N\NC(=S)N(Cc1ccccc1)Cc1ccccc1	4.16 (≈ 1.56 µg/mL)
C=CCN(CC=C)C(=S)N/N=C\c1ccc([N+](=O)[O-])o1	0.67 (≈ 0.197 µg/mL)
O=[N+]([O-])c1ccc(/C=N\NC(=S)N(Cc2ccccc2)Cc2ccccc2)o1	0.12 (≈ 0.0473 µg/mL)
C=CCN(CC=C)C(=S)N/N=C(/C)c1ccccc1	11.4 (≈ 3.13 µg/mL)
C/C(=N/NC(=S)N(Cc1ccccc1)Cc1ccccc1)c1ccccc1	4.17 (≈ 1.56 µg/mL)
C=CCN(CC=C)C(=S)N/N=C(/C)c1ccccc1O	10.8 (≈ 3.13 µg/mL)
C/C(=N/NC(=S)N(Cc1ccccc1)Cc1ccccc1)c1ccccc1O	8.03 (≈ 3.13 µg/mL)
C=CCN(CC=C)C(=S)N/N=C(/C)c1ccc(O)cc1	10.8 (≈ 3.13 µg/mL)
C/C(=N/NC(=S)N(Cc1ccccc1)Cc1ccccc1)c1ccc(O)cc1	8.03 (≈ 3.13 µg/mL)
C/C(=N/NC(=S)N(Cc1ccccc1)Cc1ccccc1)c1ccc(N)cc1	8.04 (≈ 3.12 µg/mL)
C=CCN(CC=C)C(=S)N/N=C(/C)c1ccc([N+](=O)[O-])cc1	9.83 (≈ 3.13 µg/mL)
C/C(=N/NC(=S)N(Cc1ccccc1)Cc1ccccc1)c1ccc([N+](=O)[O-])cc1	1.86 (≈ 0.778 µg/mL)
C=CCN(CC=C)C(=S)N/N=C(/C)c1ccc(F)cc1	5.35 (≈ 1.56 µg/mL)
C/C(=N/NC(=S)N(Cc1ccccc1)Cc1ccccc1)c1ccc(F)cc1	3.98 (≈ 1.56 µg/mL)
C=CCN(CC=C)C(=S)NN=C(c1ccccc1)c1ccccc1	2.32 (≈ 0.778 µg/mL)
S=C(N/N=C\c1ccccc1)N(Cc1ccccc1)Cc1ccccc1	8.71 (≈ 3.13 µg/mL)
C=CCN(CC=C)C(=S)N/N=C\c1ccccc1[N+](=O)[O-]	2.56 (≈ 0.779 µg/mL)
O=[N+]([O-])c1ccccc1/C=N\NC(=S)N(Cc1ccccc1)Cc1ccccc1	0.98 (≈ 0.396 µg/mL)
C=CCN(CC=C)C(=S)N/N=C\c1ccc([N+](=O)[O-])cc1	1.31 (≈ 0.399 µg/mL)
CC[C@@H](CO)NCCN[C@@H](CC)CO [ETHAMBUTOL]	37.7 (≈ 7.7 µg/mL)
NNC(=O)c1ccncc1 [ISONIAZID]	45.6 (≈ 6.25 µg/mL)
CO[C@H]1/C=C/O[C@@]2(C)Oc3c(C)c(O)c4c(O)c(c(/C=N/N5CCN(C)CC5)c(O)c4c3C2=O)NC(=O)/C(C)=C\C=C\[C@H](C)[C@H](O)[C@@H](C)[C@@H](O)[C@@H](C)[C@H](OC(C)=O)[C@@H]1C [RIFAMPIN]	3.79 (≈ 3.12 µg/mL)

From ChEMBL document CHEMBL3044985, “Novel antitubercular diallyl/dibenzylthiosemicarbazones endowed with high activity toward multi-drug-resistant tuberculosis” (Med Chem Res, 2012)
